Assay results published in patent US4518529A, “Antibiotics C-19393S2” (Takeda Chemical Industries, Ltd., priority 1979, dated 1985).
In brackets after ≈: the same amount, converted by molar mass. Entries after “also recorded” stand apart in the source; their conditions may differ. Where a name gives a salt, the structure may show the parent alone. Read-outs that look alike come from different tables or passages of the source. Blank lines part the entries; values can stand above or below the molecule they belong to.

Experiments:
Escherichia coli TN 659 = assay: Increasing effect on antimicrobial activity of ampicillin and cefotiam by C-19393S2, E. coli TN 659; format: cell-based; conditions: read-out: Minimum Inhibitory Concentration
Description: (§1) *Clinically isolated strains having the ability to produce betalactamase
(§2) Medium: Heart Infusion Agar (Eiken Chemical Co., Japan)

Proteus vulgaris TN 224 = assay: Increasing effect on antimicrobial activity of ampicillin and cefotiam by C-19393S2, P. vulgaris TN 224; format: cell-based; conditions: read-out: Minimum Inhibitory Concentration
Description: as §1, §2

[1] = system: Klebsiella pneumoniae TN 1725; assay: Increasing effect on antimicrobial activity of ampicillin and cefotiam by C-19393S2, K. pneumoniae TN 1725; format: cell-based; conditions: read-out: Minimum Inhibitory Concentration
Description: as §1, §2

[2] = system: gram-positive and gram-negative bacteria; assay: Antimicrobial activity (in words); format: cell-based
Stability = format: physicochemical
Solubility = format: physicochemical
[3] = system: various bacteria which exhibit resistance to penicillin derivatives and/or cephalosporin derivatives; assay: Sensitivity of resistant bacteria to penicillin and/or cephalosporin derivatives; format: cell-based; conditions: to penicillin derivatives and/or cephalosporin derivatives (ampicillin, cefotiam)
betalactamase = assay: Betalactamase inhibiting activity; format: biochemical
[4] = system: Alcaligenes faecalis IFO 13111; assay: Antimicrobial spectrum, MIC on bouillon agar, A. faecalis; format: cell-based; conditions: IFO13111, read-out: Minimum Inhibitory Concentration
Description: (§3) The biological properties of C-19393S2 are described below. The antibiotic spectrum of C-19393S2 sodium salt against various microorganisms are shown below in Table 4.

[5] = system: Bacillus subtilis IFO 3513; assay: Antimicrobial spectrum, MIC on bouillon agar, B. subtilis; format: cell-based; conditions: IFO3513, read-out: Minimum Inhibitory Concentration
Description: as §3

[6] = system: Serratia marcescens IFO 12648; assay: Antimicrobial spectrum, MIC on bouillon agar, S. marcescens; format: cell-based; conditions: IFO12648, read-out: Minimum Inhibitory Concentration
Description: as §3

Bacillus cereus IFO 3460 = assay: Antimicrobial spectrum, MIC on bouillon agar, B. cereus; format: cell-based; conditions: IFO3460, read-out: Minimum Inhibitory Concentration
Description: as §3

[7] = system: Salmonella typhimurium IFO 12529; assay: Antimicrobial spectrum, MIC on bouillon agar, S. typhimurium; format: cell-based; conditions: Salmonella enterica, read-out: Minimum Inhibitory Concentration
Description: as §3

[8] = system: Proteus vulgaris IFO 3045; assay: Antimicrobial spectrum, MIC on bouillon agar, P. vulgaris; format: cell-based; conditions: IFO3045, read-out: Minimum Inhibitory Concentration
Description: as §3

[9] = system: Staphylococcus aureus 209P; assay: Antimicrobial spectrum, MIC on bouillon agar, S. aureus; format: cell-based; conditions: read-out: Minimum Inhibitory Concentration
Description: as §3

[10] = system: Comamonas terrigena IFO 13299; assay: Antimicrobial spectrum, MIC on bouillon agar, C. terrigena; format: cell-based; conditions: IFO13299, read-out: Minimum Inhibitory Concentration
Description: as §3

[11] = system: Proteus mirabilis IFO 3845; assay: Antimicrobial spectrum, MIC on bouillon agar, P. mirabilis; format: cell-based; conditions: IFO3845, read-out: Minimum Inhibitory Concentration
Description: as §3

[12] = system: Klebsiella pneumoniae IFO 3318; assay: Antimicrobial spectrum, MIC on bouillon agar, K. pneumoniae; format: cell-based; conditions: IFO3318, read-out: Minimum Inhibitory Concentration
Description: as §3

Sarcina lutea IFO 3232 = assay: Antimicrobial spectrum, MIC on bouillon agar, S. lutea; format: cell-based; conditions: Micrococcus luteus, IFO3232, read-out: Minimum Inhibitory Concentration
Description: as §3

[13] = system: Pseudomonas aeruginosa IFO 3080; assay: Antimicrobial spectrum, MIC on bouillon agar, P. aeruginosa; format: cell-based; conditions: IFO3080, read-out: Minimum Inhibitory Concentration
Description: as §3

Escherichia coli NIHJ = assay: Antimicrobial spectrum, MIC on bouillon agar, E. coli NIHJ; format: cell-based; conditions: read-out: Minimum Inhibitory Concentration
Description: as §3

[14] = Umezawa et al., The Journal of Antibiotics, Vol. 26, pages 51-54, 1973; cited from earlier work
[15] = TN659, Escherichia coli TN 659, C-19393S2 0, Heart Infusion Agar
[16] = TN659, Escherichia coli TN 659, with C-19393S2 1 μg/ml, Heart Infusion Agar
[17] = TN659, Escherichia coli TN 659, with C-19393S2 5 μg/ml, Heart Infusion Agar
[18] = TN224, Proteus vulgaris TN 224, C-19393S2 0, Heart Infusion Agar
[19] = TN224, Proteus vulgaris TN 224, with C-19393S2 1 μg/ml, Heart Infusion Agar
[20] = TN224, Proteus vulgaris TN 224, with C-19393S2 5 μg/ml, Heart Infusion Agar
[21] = TN1725, Klebsiella pneumoniae TN 1725, C-19393S2 0, Heart Infusion Agar
[22] = TN1725, Klebsiella pneumoniae TN 1725, with C-19393S2 1 μg/ml, Heart Infusion Agar
[23] = TN1725, Klebsiella pneumoniae TN 1725, with C-19393S2 5 μg/ml, Heart Infusion Agar
[24] = aqueous solution in a neutral pH region
[25] = comparison with MM-4550 (MC 696-SY2-A)

- MIC (Escherichia coli TN 659; [15]): > 800 µg/mL
- MIC (Escherichia coli TN 659; [16]): 3.13 µg/mL (≈ 8.96 µM)
- MIC (Escherichia coli TN 659; [17]): ≤ 0.003 µg/mL
- MIC (Proteus vulgaris TN 224; [18]): 400 µg/mL (≈ 1140 µM)
- MIC (Proteus vulgaris TN 224; [19]): 1.56 µg/mL (≈ 4.46 µM)
- MIC (Proteus vulgaris TN 224; [20]): 1.56 µg/mL (≈ 4.46 µM)
- MIC [1, 21]: 800 µg/mL (≈ 2290 µM)
- MIC [1, 22]: 50 µg/mL (≈ 143 µM)
- MIC [1, 23]: 0.78 µg/mL (≈ 2.23 µM)
Structure (SMILES): CC1(C)S[C@@H]2[C@H](NC(=O)[C@H](N)c3ccccc3)C(=O)N2[C@H]1C(=O)O [Ampicillin]

Structure (SMILES): CC(=O)N/C=C/[S+]([O-])C1=C(C(=O)O)N2C(=O)C(C(C)(C)O)C2C1 (stereo not shown) [Antibiotic C-19393H2]
- antimicrobial activity [2]: exhibits antibacterial activity against gram-positive and gram-negative bacteria; also recorded: has antimicrobial activity against gram-positive and gram-negative bacteria
- Stability (Stability; [24]): stable
- Stability (Stability; [25]): stable
- Solubility (Solubility; water, listed as H2): water-soluble

Structure (SMILES): CC(=O)N/C=C/[S+]([O-])C1=C(C(=O)O)N2C(=O)C(C(C)(C)OS(=O)(=O)O)C2C1 (stereo not shown) [Antibiotic C-19393S2]
- antimicrobial activity [2]: exhibits an antimicrobial activity against gram-positive and gram-negative bacteria
- antimicrobial activity ([2]; listed as Antibiotic C-19393S2): active against gram-positive and gram-negative bacteria
- Stability (Stability; [24]): stable
- Stability (Stability; [25]): stable
- increase of sensitivity of resistant bacteria [3]: increases markedly the sensitivity; also recorded: markedly increases the sensitivity
- betalactamase inhibiting activity (betalactamase): strong betalactamase inhibiting activity; also recorded: exhibits a beta-lactamase inhibiting activity
- Solubility (Solubility; water): water-soluble

Structure (SMILES): CC(=O)N/C=C/[S+]([O-])C1=C(C(=O)O)N2C(=O)C(C(C)(C)O)C2C1 (stereo not shown) [C-19393H2 sodium salt]
- MIC [4]: 5 µg/mL
- MIC [5]: 0.31 µg/mL
- MIC [6]: 0.31 µg/mL
- MIC (Bacillus cereus IFO 3460): 10 µg/mL
- MIC [7]: 0.31 µg/mL
- MIC [8]: 5 µg/mL
- MIC [9]: 0.63 µg/mL
- MIC [10]: 0.16 µg/mL
- Solubility (Solubility; acetone): sparingly soluble
- Solubility (Solubility; butanol): sparingly soluble
- Solubility (Solubility; chloroform): Insoluble
- Solubility (Solubility; ethanol): sparingly soluble
- Solubility (Solubility; ethyl acetate): Insoluble
- Solubility (Solubility; methanol): soluble
- Solubility (Solubility; water): soluble
- MIC [11]: 5 µg/mL
- MIC [12]: 0.31 µg/mL
- MIC (Sarcina lutea IFO 3232): 0.31 µg/mL
- MIC [13]: 10 µg/mL
- MIC (Escherichia coli NIHJ): 0.08 µg/mL

Structure (SMILES): CC(=O)N/C=C/[S+]([O-])C1=C(C(=O)O)N2C(=O)C(C(C)(C)OS(=O)(=O)O)C2C1 (stereo not shown) [C-19393S2 disodium salt]
- MIC [4]: 50 µg/mL
- MIC [5]: 12.5 µg/mL
- MIC [6]: 25 µg/mL
- MIC (Bacillus cereus IFO 3460): > 100 µg/mL
- MIC [7]: 12.5 µg/mL
- MIC [8]: 100 µg/mL
- MIC [9]: 12.5 µg/mL
- MIC [10]: 6.25 µg/mL
- Solubility (Solubility; acetic acid): soluble
- Solubility (Solubility; acetone): Insoluble
- Solubility (Solubility; butanol): sparingly soluble
- Solubility (Solubility; chloroform): Insoluble
- Solubility (Solubility; dimethyl sulfoxide): soluble
- Solubility (Solubility; ethanol): sparingly soluble
- Solubility (Solubility; ethyl acetate): Insoluble
- Solubility (Solubility; methanol): soluble
- Solubility (Solubility; pyridine): sparingly soluble
- Solubility (Solubility; water): readily soluble
- MIC [11]: 50 µg/mL
- MIC [12]: 12.5 µg/mL
- MIC (Sarcina lutea IFO 3232): 12.5 µg/mL
- MIC [13]: > 100 µg/mL
- MIC (Escherichia coli NIHJ): 12.5 to 25 µg/mL

- MIC (Escherichia coli TN 659; [15]): 0.2 µg/mL (≈ 0.38 µM)
- MIC (Escherichia coli TN 659; [16]): 0.1 µg/mL (≈ 0.19 µM)
- MIC (Escherichia coli TN 659; [17]): 0.006 µg/mL (≈ 0.0114 µM)
- MIC (Proteus vulgaris TN 224; [18]): 200 µg/mL (≈ 380 µM)
- MIC (Proteus vulgaris TN 224; [19]): 0.2 µg/mL (≈ 0.38 µM)
- MIC (Proteus vulgaris TN 224; [20]): 0.2 µg/mL (≈ 0.38 µM)
- MIC [1, 21]: 200 µg/mL (≈ 380 µM)
- MIC [1, 22]: 0.2 µg/mL (≈ 0.38 µM)
- MIC [1, 23]: 0.02 µg/mL (≈ 0.038 µM)
Structure (SMILES): CN(C)CCn1nnnc1SCC1=C(C(=O)O)N2C(=O)[C@@H](NC(=O)Cc3csc(N)n3)[C@H]2SC1 [Cefotiam]

Structure (SMILES): CC(=O)N/C=C/[S+]([O-])C1=C(C(=O)O)N2C(=O)C(C(C)OS(=O)(=O)O)C2C1 (stereo not shown) [MC 696-SY2-A]
- Stability [14]: very unstable
